This is an account of results in patent US20160237044A1, “SUBSTITUTED PHENYLALANINE DERIVATIVES” (BAYER PHARMA AKTIENGESELLSCHAFT, priority 2013, published 2016).

Where a name gives a salt, the structure may show the parent alone.

In one assay the target is T1, human plasmin (Homo sapiens, UniProt P00747).
T1 construct: purchased Kordia
The assay can be described thus: Measurement of plasmin inhibition (fluorogenic peptide substrate MeOSuc-Ala-Phe-Lys-AMC). It is filed as biochemical. Particulars: plasmin from Kordia, 15 min preincubation, 30 min at 22° C., fluorescence. As for the experimental part: a.6) Measurement of Plasmin Inhibition
The plasmin inhibition of the inventive substances is determined using a biochemical test system which utilizes the reaction of a peptidic plasmin substrate to determine the enzymatic activity of human plasmin. Here, plasmin cleaves from the peptic plasmin substrate the C-terminal aminomethylcoumarin (AMC), the fluorescence of which is measured. The determinations are carried out in microtitre plates.
(§1) Test substances are dissolved in dimethyl sulphoxide and serially diluted in dimethyl sulphoxide (3000 μM to 0.0078 μM; resulting final concentrations in the test: 50 μM to 0.00013 μM). In each case 1 μl of the diluted substance solutions is placed into the wells of white microtitre plates from Greiner (384 wells). […] After 15 min of incubation, the enzyme reaction is started by addition of 20 μl of the plasmin substrate MeOSuc-Ala-Phe-Lys-AMC dissolved in assay buffer (150 μM in assay buffer) from Bachem, the mixture is incubated at room temperature (22° C.) for 30 min and fluorescence is then measured (excitation: 360 nm, emission: 460 nm). The measured emissions of the test batches with test substance are compared to those of control batches without test substance (only dimethyl sulphoxide instead of test substance in dimethyl sulphoxide), and IC50 values are calculated from the concentration/activity relationships.

The next assay relates to plasma. The assay can be described thus: Determination of anticoagulatory activity: activated partial thromboplastin time (aPTT) in plasma. The class given is biochemical, human. Particulars: concentration of test substance which brings about a 1.5-fold extension of the aPTT, C.K. Prest kit, 37° C. As for the experimental part:
a.4) Determination of Anticoagulatory Activity
The anticoagulatory activity of the test substances is determined in vitro in human and animal plasma (for example mouse, rat, rabbit, pig and dog plasma). To this end, blood is drawn off in a mixing ratio of sodium citrate/blood of 1:9 using a 0.11 molar sodium citrate solution as receiver. Immediately after the blood has been drawn off, it is mixed thoroughly and centrifuged at about 4000 g for 15 minutes. The supernatant is pipetted off.
The activated partial thromboplastin time (aPTT) is determined in the presence of varying concentrations of test substance or the corresponding solvent using a commercial test kit (C.K. Prest from Diagnostica Stago). The test compounds are incubated with the plasma and the PTT reagent (cephalin, kaolin) at 37° C. for 3 minutes. Coagulation is then started by addition of a 25 mM aqueous calcium chloride solution, and the time when coagulation occurs is determined. The concentration of test substance which brings about a 1.5-fold extension of the aPTT is determined.

The target of the next assay is T2, human factor XIa (Homo sapiens, UniProt P03951).
T2 construct: purchased Kordia
The assay can be described thus: Measurement of FXIa inhibition (fluorogenic peptide substrate Boc-Glu(OBzl)-Ala-Arg-AMC). The note with it: factor XIa from Kordia, 15 min preincubation, 30 min at 22° C., fluorescence; read-out: IC50. The class given is biochemical. As for the experimental part:
a.1) Measurement of FXIa Inhibition
The factor XIa inhibition of the substances according to the invention is determined using a biochemical test system which utilizes the reaction of a peptidic factor XIa substrate to determine the enzymatic activity of human factor XIa. Here, factor XIa cleaves from the peptic factor XIa substrate the C-terminal aminomethylcoumarin (AMC), the fluorescence of which is measured. The determinations are carried out in microtitre plates.
as §1, with “In” for “Test substances are dissolved in dimethyl sulphoxide and serially diluted in dimethyl sulphoxide (3000 μM to 0.0078 μM; resulting final concentrations in the test: 50 μM to 0.00013 μM). In”, “factor XIa” for “plasmin”, “Boc-Glu(OBzl)-Ala-Arg-AMC” for “MeOSuc-Ala-Phe-Lys-AMC”, “(10” for “(150”

T2 sequence (P03951 388-625 limits assumed): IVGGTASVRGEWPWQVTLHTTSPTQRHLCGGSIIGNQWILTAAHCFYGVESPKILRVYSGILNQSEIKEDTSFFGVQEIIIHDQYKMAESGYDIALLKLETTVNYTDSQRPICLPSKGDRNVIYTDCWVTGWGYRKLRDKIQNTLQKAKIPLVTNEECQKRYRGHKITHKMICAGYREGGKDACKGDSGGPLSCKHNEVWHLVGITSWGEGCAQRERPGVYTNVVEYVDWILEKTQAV
T2 sequence (P03951 19-387 partner limits assumed): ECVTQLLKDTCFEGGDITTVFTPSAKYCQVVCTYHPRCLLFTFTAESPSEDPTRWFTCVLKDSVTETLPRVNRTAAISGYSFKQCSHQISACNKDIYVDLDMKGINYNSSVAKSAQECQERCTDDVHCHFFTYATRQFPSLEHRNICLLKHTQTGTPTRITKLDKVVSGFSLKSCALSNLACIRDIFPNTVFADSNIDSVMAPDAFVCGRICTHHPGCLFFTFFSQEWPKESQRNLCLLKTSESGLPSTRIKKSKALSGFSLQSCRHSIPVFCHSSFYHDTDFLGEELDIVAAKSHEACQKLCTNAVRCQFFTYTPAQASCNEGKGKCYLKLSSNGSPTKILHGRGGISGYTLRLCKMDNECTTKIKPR
T1 sequence (P00747 581-810 limits assumed): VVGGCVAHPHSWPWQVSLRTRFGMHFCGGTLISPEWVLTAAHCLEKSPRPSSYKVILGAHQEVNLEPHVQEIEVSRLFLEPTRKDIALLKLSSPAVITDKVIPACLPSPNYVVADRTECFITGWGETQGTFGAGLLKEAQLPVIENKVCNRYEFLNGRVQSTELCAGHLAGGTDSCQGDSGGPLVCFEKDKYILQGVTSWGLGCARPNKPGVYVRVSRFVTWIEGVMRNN
T1 sequence (P00747 97-580 partner limits assumed): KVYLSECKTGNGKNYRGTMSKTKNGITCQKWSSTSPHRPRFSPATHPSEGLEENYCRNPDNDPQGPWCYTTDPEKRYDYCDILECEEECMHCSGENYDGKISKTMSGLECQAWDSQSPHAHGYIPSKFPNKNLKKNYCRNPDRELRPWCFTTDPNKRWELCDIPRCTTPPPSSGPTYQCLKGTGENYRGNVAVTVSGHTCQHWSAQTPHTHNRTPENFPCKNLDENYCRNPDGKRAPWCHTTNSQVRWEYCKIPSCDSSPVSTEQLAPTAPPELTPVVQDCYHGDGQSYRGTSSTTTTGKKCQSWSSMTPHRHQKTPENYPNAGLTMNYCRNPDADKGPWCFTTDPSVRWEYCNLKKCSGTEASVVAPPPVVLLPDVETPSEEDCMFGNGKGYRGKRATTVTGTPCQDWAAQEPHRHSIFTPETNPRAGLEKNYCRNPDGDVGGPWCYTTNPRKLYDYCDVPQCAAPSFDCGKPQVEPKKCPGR

A word on the IC50: it is the concentration that inhibits the measured activity by half. As for `Cc1cc(S(=O)(=O)NC2CC2)ccc1-c1ccc(C[C@H](NC(=O)[C@H]2CC[C@H](CN)CC2)C(=O)Nc2ccc3c(=O)[nH][nH]c3c2)cc1` [Example 12, trans-4-(Aminomethyl)-N-{(2S)-3-[4′-(cyclopropylsulphamoyl)-2′-methylbiphenyl-4-yl]-1-oxo-1-[(3-oxo-2,3-dihydro-1H-indazol-6-yl)amino]propan-2-yl}cyclohexanecarboxamide hydrochloride], the concentration for half-maximal inhibition (IC50) against human plasmin came to 30 nM; at human factor XIa, 2.7 nM. Further, the “Concentration for 1.5-fold aPTT extension” value with plasma came to 0.04 µmol/L.
In the case of `Cc1cc(S(=O)(=O)N2CCCC2)ccc1-c1ccc(C[C@H](NC(=O)[C@H]2CC[C@H](CN)CC2)C(=O)Nc2ccc3c(=O)[nH][nH]c3c2)cc1` [Example 15, trans-4-(Aminomethyl)-N-{(2S)-3-[2′-methyl-4′-(pyrrolidin-1-ylsulphonyl)biphenyl-4-yl]-1-oxo-1-[(3-oxo-2,3-dihydro-1H-indazol-6-yl)amino]propan-2-yl}cyclohexanecarboxamide hydrochloride], the values for the half-inhibitory concentration (IC50) at human plasmin and at human factor XIa were 23 nM and 2.8 nM, respectively. For the same compound, in the assay on plasma, the “Concentration for 1.5-fold aPTT extension” value stood at 0.09 µmol/L.
As for `COc1ccc(-c2ccc(C[C@H](NC(=O)[C@H]3CC[C@H](CN)CC3)C(=O)Nc3ccc(-c4nn[nH]n4)cc3)cc2)c(C(F)(F)F)c1` [Example 27, trans-4-(Aminomethyl)-N-[(2S)-3-[4′-methoxy-2′-(trifluoromethyl)biphenyl-4-yl]-1-oxo-1-{[4-(2H-tetrazol-5-yl)phenyl]amino}propan-2-yl]cyclohexanecarboxamide hydrochloride], the “Concentration for 1.5-fold aPTT extension” value in the assay on plasma turned out to be 0.21 µmol/L. For the same compound, the IC50 on human factor XIa worked out at 4.5 nM.
For the compound `CN(C)C1CCC(NS(=O)(=O)c2ccc(-c3ccc(C[C@H](NC(=O)[C@H]4CC[C@H](CN)CC4)C(=O)Nc4ccc5[nH]c(=O)[nH]c5c4)cc3)c(C(F)(F)F)c2)CC1` (stereo partly drawn) [Example 28, trans-4-(Aminomethyl)-N-{(2S)-3-[4′-{[4-(dimethylamino)cyclohexyl]sulphamoyl}-2′-(trifluoromethyl)biphenyl-4-yl]-1-oxo-1-[(2-oxo-2,3-dihydro-1H-benzimidazol-5-yl)amino]propan-2-yl}cyclohexanecarboxamide hydrochloride], the “Concentration for 1.5-fold aPTT extension” value in the assay on plasma stood at 0.06 µmol/L. Besides, at human factor XIa, the half-maximal inhibitory concentration (IC50) is 5.2 nM.
